# Experimental data: US8822691B2, “Pesticidal carboxamides” (Bayer CropScience AG, priority 2009, dated 2014)
# Experiments:
# Type in all cases: in vivo
# [1] = tested on: Aulacophora femoralis; experiment: Test against cucurbit leaf beetle (Aulacophora femoralis), leaf dip; details: active compound concentration of 500 ppm, second instar larvae on cucumber leaves, after 7 days; for pest or weed control at 500 ppm: Aulacophora, foliar, 168 h, read-out: insecticidal activity
# Description: (§1) Unless not mentioned otherwise, the test solutions were prepared as follows:
# (§2) Containing as solvent: Dimethylformamide, 3 parts by weight; and as emulsifier: Polyoxyethylene alkyl phenyl ether, 1 part by weight
# (§3) To prepare the test solution, 1 part by weight of an active compound is mixed with the above-mentioned amount of solvent containing the above-mentioned amount of emulsifier, and the mixture is diluted with water to the desired concentration.
# Leaves of cucumber were immersed in the test solution at the appropriate concentration, and the leaves were dried in air. The leaves were then put in a plastic cup containing sterilized black soil and five Aulacophora femoralis at second instar larvae were released in the cup. The cups were placed in a temperature-controlled chamber at 25° C. After 7 days, the number of dead larvae was counted, and thus the insecticidal activity was calculated. An insecticidal activity of 100% means that all larvae were killed, whereas an insecticidal activity of 0% means that no larva was killed.
# [2] = tested on: Boophilus microplus; experiment: Boophilus microplus (dip); details: for mortality at 100 ppm: Rhipicephalus microplus, 168 h, read-out: activity (mortality)
# Description: Solvent: Dimethylsulfoxid
# To produce a suitable preparation of active compound, 10 mg of active compound are dissolved in 0.5 ml solvent, and the concentrate is diluted with water to the desired concentration. Eight to ten adult engorged female Boophilus microplus ticks are placed in perforated plastic beakers and immersed in aqueous compound solution for one minute. Ticks are transferred to a filter paper in a plastic tray. Egg deposition of fertile eggs is monitored after. After 7 days mortality in % is determined. 100% means that all the ticks have been killed; 0% means that none of the ticks have been killed.
# [3] = tested on: Tetranychus urticae; experiment: Test against two-spotted spider mite (Tetranychus urticae), spray; details: active compound concentration of 500 ppm, adult mites on kidney bean, after 7 days; for pest or weed control at 500 ppm: Tetranychus urticae, 168 h, read-out: acaricidal activity
# Description: as §1, §2, §3
# 50 to 100 adult mites of Tetranychus urticae were inoculated to leaves of kidney bean at two-leaf stage planted in a pot of 6 cm in diameter. After one day, test solution at the appropriate concentration was sprayed thereon in a sufficient amount using a spray gun. After the spraying, the plant pot was placed inside a greenhouse, and after 7 days, the acaricidal activity was calculated. An acaricidal activity of 100% means that all mites were killed, whereas an acaricidal activity of 0% means that no mite was killed.
# [4] = tested on: Spodoptera litura; experiment: Test against tobacco cutworm (Spodoptera litura) larvae, leaf dip; details: active compound concentration of 100 ppm, third instar larvae on sweet potato leaves, after 7 days; for pest or weed control at 100 ppm: foliar, 168 h, read-out: insecticidal activity
# Description: as §1, §2, §3
# Leaves of sweet potato were immersed in the test solution at the appropriate concentration, and the leaves were dried in air. The leaves were then placed in a petri dish having a diameter of 9 cm, and ten Spodoptera litura at third instar larvae were released therein. The petri dishes were placed in a temperature-controlled chamber at 25° C. After 2 days and 4 days more sweet potato leaves were added. After 7 days, the number of dead larvae was counted to calculate the insecticidal activity. An insecticidal activity of 100% means that all larvae were killed, whereas an insecticidal activity of 0% means that no larva was killed. In the current test, the results of two petri dishes for each treatment were averaged.
# [5] = tested on: Lucilia cuprina; experiment: Lucilia cuprina (48 h) larval test; details: Lucilia cuprina, 48 h, read-out: activity (larval mortality)
# Description: Species: Lucilia cuprina 1st instar larvae (age 24 hrs)
# (§4) Solvent: dimethyl sulfoxide
# 10 mg active compound are dissolve in 0.5 ml dimethyl sulfoxide. Serial dilutions are made to obtain the desired rates. Approximately 20 Lucilia cuprina 1st instar larvae are transferred into a test tube containing 1 cm^3 of minced horse meat and 0.5 ml aqueous dilution of test compound. After 48 hrs percentage of larval mortality are recorded. 100% efficacy all larvae are killed, % efficacy normally developed larvae after 48 hrs.
# [6] = tested on: Boophilus microplus; experiment: Boophilus microplus-test (injection); details: Rhipicephalus microplus, 168 h, read-out: activity (mortality in %; 100% means that all eggs are infertile)
# Description: as §4
# To produce a suitable preparation of active compound, 10 mg of active compound are dissolved in 0.5 ml solvent, and the concentrate is diluted with solvent to the desired concentration. Five adult engorged female ticks (Boophilus microplus) are injected with 1 μl compound solution into the abdomen. Ticks are transferred into replica plates and incubated in a climate chamber for a period of time. Egg deposition of fertile eggs is monitored.
# After 7 days mortality in % is determined. 100% means that all eggs are infertile; 0% means that all eggs are fertile.
# [7] = tested on: Ctenocephalides felis; experiment: Ctenocephalides felis-test (CTECFE); details: Ctenocephalides felis, in Bos taurus, 48 h, read-out: activity (mortality), application rate of 100 ppm in cattle blood; adult unfed fleas; after 2 days
# Description: as §4
# To produce a suitable preparation of active compound, 10 mg of active compound are dissolved in 0.5 ml solvent, and the concentrate is diluted with cattle blood to the desired concentration. Approximately 20 adult unfed (Ctenocepahlides felis) are placed in flea chambers. The blood chamber, sealed with parafilm on the bottom, are filled with cattle blood supplied with compound solution and placed on top of the flea chamber, so that the fleas are able to suck the blood. The blood chamber is heated to 37° C. whereas the flea chamber is kept at room temperature. After 2 days mortality in % is determined. 100% means that all the fleas have been killed; 0% means that none of the fleas have been killed.
# [8] = tested on: Musca domestica; experiment: Musca domestica-test; details: Musca domestica, 48 h, read-out: activity (mortality)
# Description: as §4
# To produce a suitable preparation of active compound, 10 mg of active compound are dissolved in 0.5 ml solvent, and the concentrate is diluted with water to the desired concentration. Prior to the assay, a piece of kitchen sponge is soaked with a mixture of sugar and compound solution and placed into a container. 10 adults (Musca domestica) are placed into the container and closed with a perforated lid. After 2 days mortality in % is determined. 100% means that all the flies have been killed; 0% means that none of the flies have been killed.
SMILES,insecticidal activity [1] [%],"activity (mortality) ([2]; application rate of 100 ppm, dip of adult engorged female ticks for one minute, after 7 days) [%]",acaricidal activity [3] [%],insecticidal activity [4] [%],pest or weed control at 500 ppm [1] [%],pest or weed control at 100 ppm [4] [%],mortality at 100 ppm [5] [%],mortality at 0.02 mg [6] [%],mortality at 100 ppm [7] [%],mortality at 100 ppm [8] [%],mortality at 100 ppm [2] [%],pest or weed control at 500 ppm [3] [%]
N#Cc1ccc2cc(C(=O)Nc3c(I)cc(C(F)(C(F)(F)F)C(F)(F)F)cc3I)ccc2n1 [2-69],100,100,100,100,–,–,–,–,–,–,–,–
"Cc1cc(C(F)(C(F)(F)F)C(F)(F)F)cc(C)c1NC(=O)c1cc(Cl)c2ncc(Cl)cc2c1 [2-214, 3,8-dichloro-N-[4-(1,1,1,2,3,3,3-heptafluoropropan-2-yl)-2,6-dimethylphenyl]quinoline-6-carboxamide]",–,–,–,–,100,100,90,100,–,–,–,–
"Cc1cc(C(F)(C(F)(F)F)C(F)(F)F)cc(C)c1NC(=O)c1ccc2nc(C#N)ccc2c1 [Compound No. 2-20, 2-cyano-N-[4-(1,1,1,2,3,3,3-heptafluoropropan-2-yl)-2,6-dimethylphenyl]quinoline-6-carboxamide]",–,–,–,–,100,100,100,100,100,95,–,–
"N#Cc1ccc2cc(C(=O)Nc3c(Br)cc(C(F)(C(F)(F)F)C(F)(F)F)cc3OC(F)F)ccc2n1 [Compound No. 2-154, N-[2-bromo-6-(difluoromethoxy)-4-(1,1,1,2,3,3,3-heptafluoropropan-2-yl)phenyl]-2-cyanoquinoline-6-carboxamide]",–,–,–,–,100,100,–,–,–,–,90,100
"N#Cc1ccc2cc(C(=O)Nc3c(Br)cc(C(F)(C(F)(F)F)C(F)(F)C(F)(F)F)cc3OC(F)F)ccc2n1 (stereo not drawn) [Compound No. 2-173, N-[2-bromo-6-(difluoromethoxy)-4-(1,1,1,2,3,3,4,4,4-nonafluorobutan-2-yl)phenyl]-2-cyanoquinoline-6-carboxamide]",–,–,–,–,100,100,–,–,–,–,100,100
"O=C(Nc1c(I)cc(C(F)(C(F)(F)F)C(F)(F)C(F)(F)F)cc1OC(F)F)c1ccc2ncccc2c1 (stereo not drawn) [Compound No. 2-174, N-[2-(difluoromethoxy)-6-iodo-4-(1,1,1,2,3,3,4,4,4-nonafluorobutan-2-yl)phenyl]quinoline-6-carboxamide]",–,–,–,–,100,100,100,100,100,100,–,100
"N#Cc1ccc2cc(C(=O)Nc3c(I)cc(C(F)(C(F)(F)F)C(F)(F)C(F)(F)F)cc3OC(F)F)ccc2n1 (stereo not drawn) [Compound No. 2-176, 2-cyano-N-[2-(difluoromethoxy)-6-iodo-4-(1,1,1,2,3,3,4,4,4-nonafluorobutan-2-yl)phenyl]quinoline-6-carboxamide]",–,–,–,–,100,100,100,100,90,100,100,100
"O=C(Nc1c(Br)cc(C(F)(C(F)(F)F)C(F)(F)Br)cc1OC(F)F)c1ccc2ncccc2c1 (stereo not drawn) [Compound No. 2-201, N-[2-bromo-4-(1-bromo-1,1,2,3,3,3-hexafluoropropan-2-yl)-6-(difluoromethoxy)phenyl]quinoline-6-carboxamide]",–,–,–,–,100,100,100,100,100,100,–,100
"O=C(Nc1c(Br)cc(C(F)(C(F)(F)F)C(F)(F)Br)cc1OC(F)F)c1ccc2c(ccc[n+]2[O-])c1 (stereo not drawn) [Compound No. 2-202, N-[2-bromo-4-(1-bromo-1,1,2,3,3,3-hexafluoropropan-2-yl)-6-(difluoromethoxy)phenyl]quinoline-6-carboxamide 1-oxide]",–,–,–,–,100,–,100,100,95,100,–,100
"N#Cc1ccc2cc(C(=O)Nc3c(Br)cc(C(F)(C(F)(F)F)C(F)(F)Br)cc3OC(F)F)ccc2n1 (stereo not drawn) [Compound No. 2-203, N-[2-bromo-4-(1-bromo-1,1,2,3,3,3-hexafluoropropan-2-yl)-6-(difluoromethoxy)phenyl]-2-cyanoquinoline-6-carboxamide]",–,–,–,–,100,100,100,100,100,100,100,100
"Cc1cc(C(F)(C(F)(F)F)C(F)(F)F)cc(C)c1NC(=O)c1ccc2ncc(Cl)cc2c1 [Compound No. 2-213, 3-chloro-N-[4-(1,1,1,2,3,3,3-heptafluoropropan-2-yl)-2,6-dimethylphenyl]quinoline-6-carboxamide]",–,–,–,–,100,100,100,100,–,80,–,–
